Reference: patent US9090617B1, “Agonists of Src homology-2 containing protein tyrosine phosphatase-1 and treatment methods using the same” (National Taiwan University, priority 2011, dated 2015)
Entries after “also recorded” stand apart in the source; their conditions may differ. Like-named read-outs stand apart in the source and are kept apart here.

What was measured:
HCC cells [1] = assay: Apoptosis analysis by flow cytometry (sub-G1); type: cell-based; details: for apoptosis (sub-G1): HCC cells, 24 h
Protocol: Apoptotic cells were measured by flow cytometry (sub-G1). After treatment with various compounds, cells were trypsinized, collected by centrifugation and resuspended in PBS. After centrifugation, the cells were washed in PBS and resuspended in […] (PI) staining solution. Specimens were incubated in the dark for 30 min at 37° C. and then analyzed with an EPICS Profile II flow cytometer (Coulter Corp., Hialeah, Fla.). All experiments were performed in triplicate
Collected cells were fixed in 75% Ethanol and stained with 20 ug/ml Propidium Iodide (PI). Sub-G1 analysis was performed by flow-cytometry. […] Points, mean; bars, SD (n=6).

STAT3 = STAT3 luciferase reporter assay; type: cell-based; details: 10 μM, 24 h
Protocol: Cells were seeded in 96-well plate and pre-treated with IL-6 at the dose […] for 30 min. The STAT3 reporter kit was purchased from SABiosciences (Frederick, Md.).
STAT3 reporter assay: PLC5 cells were seeded in a 96-well plate. Cells were pretransfected with STAT3 reporter construct for 24 h and treated with derivatives for another 24 h. The STAT3 Reporter Kit was purchased from SABiosciences.

HCC cells [2] = assay: cells
Excerpt: Points, mean; bars, SD (n=6).
Points, mean; bars, SD ([…]). […] The N-SH2 domain is in orange, the C-SH2 domain is in marine, the PTP domain is in hot pink, and the linkers between them are in gray. […] ELISA, enzyme-linked immunosorbent assay.

Huh-7 tumors = test system: Huh-7 tumors
Protocol: Male NCr athymic nude mice (5-7 weeks of age) were obtained from the National Laboratory Animal Center (Taipei, Taiwan). All experimental procedures using these mice were performed in accordance with protocols approved by National Taiwan University. […] Controls received vehicle (Chen K F et al. Cancer Res. 2008; 68:6698-6707).

[3] = test system: MDAMB231, MDAMB468, MCF-7, HL-60, KG-1 and ML-1; assay: Anti-proliferation in breast cancer and leukemia cell lines; type: cell-based; details: MDAMB231, MDAMB468, MCF-7, HL-60, KG-1, ML-1
Protocol: The Huh-7 HCC cell line was obtained from the Health Science Research Resources Bank (Osaka, Japan; JCRB0403). The PLC/PRF/5 (PLC5), Sk-Hep-1, and Hep3B cell lines were obtained from American Type Culture Collection (Manassas, Va.). The cells were maintained in DMEM supplemented with 10% FBS, 100 units/mL penicillin G, 100 μg/mL streptomycin sulfate and 25 μg/mL amphotericin B in a 37° C. humidified incubator in an atmosphere of 5% CO2 in air. Other cell lines, including breast cancer cells e.g. MDAMB231, MDAMB468, MCF-7, and leukemia cancer cells e.g. HL-60, KG-1 and ML-1 are also provided for the assays described below.
We also examed the effects of SC-1 and SC-43 in other cancer cell lines, including breast cancer cell lines e.g. MDAMB231, MDAMB468, MCF-7, and leukemia cancer cell lines e.g. HL-60, KG-1 and ML-1.

SHP-1 [4] = biological target: T1, SHP-1 (Homo sapiens, UniProt P29350); assay: Phosphatase activity of SHP-1 immunoprecipitated from PLC5 cells, incubated with compound in vitro; type: biochemical; set-up: PLC5 protein extract was incubated with anti-SHP-1 antibody in immunoprecipitation buffer overnight; endogenous in cells; host or cells: PLC5 (PLC/PRF/5)
T1 sequence (P29350 whole entry): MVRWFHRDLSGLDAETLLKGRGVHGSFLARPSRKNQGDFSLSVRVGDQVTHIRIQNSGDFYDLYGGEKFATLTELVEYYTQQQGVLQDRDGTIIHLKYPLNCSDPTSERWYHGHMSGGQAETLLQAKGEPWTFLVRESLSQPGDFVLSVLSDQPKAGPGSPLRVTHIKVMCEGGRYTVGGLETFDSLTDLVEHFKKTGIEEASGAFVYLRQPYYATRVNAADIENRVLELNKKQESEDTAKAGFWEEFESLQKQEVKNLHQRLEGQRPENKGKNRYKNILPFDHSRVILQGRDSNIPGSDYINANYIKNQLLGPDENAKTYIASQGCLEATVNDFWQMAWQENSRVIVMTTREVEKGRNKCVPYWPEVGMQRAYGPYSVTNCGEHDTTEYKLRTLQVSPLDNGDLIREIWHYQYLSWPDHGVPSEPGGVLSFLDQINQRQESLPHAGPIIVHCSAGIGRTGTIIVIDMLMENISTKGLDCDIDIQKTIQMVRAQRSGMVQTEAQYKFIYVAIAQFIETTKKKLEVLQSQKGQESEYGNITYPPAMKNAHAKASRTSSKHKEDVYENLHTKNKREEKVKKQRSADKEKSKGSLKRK
Protocol: PLC5 protein extract was incubated with anti-SHP-1 antibody in immunoprecipitation buffer overnight. Protein G Sepharose 4 Fast flow (GE Healthcare Bio-Science) was added to each sample, followed by incubation for 3 hours at 4° C. with rotation. […] RediPlate 96 EnzChek Tyrosine Phosphatase Assay kit (R-22067) was used for SHP-1 activity assay (Molecular Probes).

[5] = test system: p-STAT3, cyclin D1, survivin, Mc1-1; assay: Western blot of STAT3-related proteins in HCC cells; type: cell-based; details: HCC cells, 24 h
Protocol: Cells were treated with various compounds at 5 and 10 μM for 24 h. Cell lysates were analyzed by western blot.
HCC cells treated with SC-43 (10 μM for 24 h) were collected with RIPA lysis buffer. Antibodies for immunoblotting such as cyclin D1 was purchased from Santa Cruz Biotechnology. Other antibodies such as survivin, phospho-STAT3 (Tyr705), STAT3, Mc1-1, SOCS1, and SOCS3 were from Cell Signaling.

PLC5 cells = assay: MTT assay for cell growth inhibition in PLC5 cells; type: cell-based
Protocol: These compounds were analyzed by MTT assay for cell growth inhibition in the PLC5 cells.
Next, we changed the pyridine to a quinoline ring and amide linker to generate compounds 12-25. These compounds were also analyzed by MTT assay for cell growth inhibition in the PLC5 cells.

Raf-1 = biological target: T2, Raf-1 (Homo sapiens, UniProt P04049); assay: Raf-1 kinase activity in lysates of treated cells; type: cell-based
T2 construct: Raf-1 immunoprecipitated from PLC5 cell extracts was incubated with MEK recombinant protein; endogenous in cells; host or cells: PLC5
T2 sequence (P04049 whole entry): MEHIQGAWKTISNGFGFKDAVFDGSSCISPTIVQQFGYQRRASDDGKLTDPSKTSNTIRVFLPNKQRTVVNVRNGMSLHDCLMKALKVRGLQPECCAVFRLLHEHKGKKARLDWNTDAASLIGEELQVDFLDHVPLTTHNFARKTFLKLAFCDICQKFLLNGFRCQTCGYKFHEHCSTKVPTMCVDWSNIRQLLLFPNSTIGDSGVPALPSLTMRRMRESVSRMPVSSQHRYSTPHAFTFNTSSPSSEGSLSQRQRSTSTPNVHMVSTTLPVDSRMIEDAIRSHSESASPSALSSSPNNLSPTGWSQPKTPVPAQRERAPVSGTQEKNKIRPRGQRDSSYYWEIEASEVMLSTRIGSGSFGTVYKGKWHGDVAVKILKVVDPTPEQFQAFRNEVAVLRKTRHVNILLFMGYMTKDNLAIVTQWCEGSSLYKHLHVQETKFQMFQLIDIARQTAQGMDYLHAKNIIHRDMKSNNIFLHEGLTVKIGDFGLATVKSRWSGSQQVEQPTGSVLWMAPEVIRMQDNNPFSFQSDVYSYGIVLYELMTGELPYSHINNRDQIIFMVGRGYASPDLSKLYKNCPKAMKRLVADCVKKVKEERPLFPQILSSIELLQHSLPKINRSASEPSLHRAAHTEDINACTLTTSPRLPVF
Excerpt: (§1) The RediPlate 96 EnzChek® Tyrosine Phosphatase Assay Kit (R-22067) was used for SHP-1 activity assay (Molecular Probes, Carlsbad, Calif.). The Raf-1 kinase cascade assay kit (Upstate-Millipore, Billerica, Mass.) was used to examine the Raf-1 kinase activity. The JAK2 kinase activity kit was purchased from Reaction Biology Corp. (Malvern, Pa.).

JAK2 = biological target: T3, JAK2 (Homo sapiens, UniProt O60674); assay: JAK2 kinase activity; type: cell-based; details: PLC5 cells, 10 μM, 24 h
T3 construct: endogenous in cells; host or cells: PLC5
T3 sequence (O60674 whole entry): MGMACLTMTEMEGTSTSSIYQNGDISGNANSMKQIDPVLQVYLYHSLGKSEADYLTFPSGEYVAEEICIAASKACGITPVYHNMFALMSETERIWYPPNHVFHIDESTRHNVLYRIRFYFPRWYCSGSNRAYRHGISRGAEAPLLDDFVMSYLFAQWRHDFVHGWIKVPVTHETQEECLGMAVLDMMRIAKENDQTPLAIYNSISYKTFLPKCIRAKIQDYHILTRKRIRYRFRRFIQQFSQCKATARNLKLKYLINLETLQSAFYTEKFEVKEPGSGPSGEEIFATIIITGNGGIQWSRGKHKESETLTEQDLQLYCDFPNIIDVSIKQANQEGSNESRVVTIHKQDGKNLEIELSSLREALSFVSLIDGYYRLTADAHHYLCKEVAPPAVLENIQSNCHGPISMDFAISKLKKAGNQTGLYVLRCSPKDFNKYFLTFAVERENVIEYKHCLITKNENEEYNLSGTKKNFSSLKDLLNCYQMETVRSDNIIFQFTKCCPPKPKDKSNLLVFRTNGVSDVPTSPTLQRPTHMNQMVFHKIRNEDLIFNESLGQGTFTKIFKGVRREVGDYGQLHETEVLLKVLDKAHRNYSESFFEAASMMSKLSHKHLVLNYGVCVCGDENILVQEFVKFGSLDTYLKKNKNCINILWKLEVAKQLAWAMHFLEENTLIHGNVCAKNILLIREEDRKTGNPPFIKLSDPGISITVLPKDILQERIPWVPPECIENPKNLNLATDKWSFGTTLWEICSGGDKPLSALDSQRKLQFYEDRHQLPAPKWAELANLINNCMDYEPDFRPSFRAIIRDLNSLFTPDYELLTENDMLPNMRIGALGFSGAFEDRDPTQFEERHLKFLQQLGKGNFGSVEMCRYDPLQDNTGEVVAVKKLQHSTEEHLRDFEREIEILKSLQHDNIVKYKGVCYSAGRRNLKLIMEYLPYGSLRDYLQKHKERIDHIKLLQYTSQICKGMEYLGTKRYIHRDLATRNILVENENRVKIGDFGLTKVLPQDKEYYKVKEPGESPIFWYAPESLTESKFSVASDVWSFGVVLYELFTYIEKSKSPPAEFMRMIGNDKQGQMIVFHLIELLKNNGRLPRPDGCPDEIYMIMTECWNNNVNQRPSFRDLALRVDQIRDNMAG
Excerpt: as §1

phospho-STAT3 (Tyr705) = assay: Phospho-STAT3 (Tyr705) sandwich ELISA; type: cell-based
Protocol: A PathScan Phospho-Stat3 (Tyr705) Sandwich ELISA Kit was used for the detection of phospho-STAT3 (Cell Signaling, Danvers, Mass.). Cells were pre-treated with IL-6 1 ng/ml and then exposed with various compounds at 10 μM for 24 h. After incubation with cell lysates, both non-phospho- and phospho-Stat3 proteins are captured by the coated antibody. The expression of phospho-STAT3 was measured at 450 nm absorbance.
The decreased level of P-STAT3 induced by these derivatives was correlated with cell toxicity. In the other words, these derivatives induced cell death in part through inhibition of STAT3.
We also assayed the activation status of p-STAT3 by STAT3 ELISA. […] SC-1 or sorafenib-treated cell extracts were incubated with antibody against phosphorylated STAT3 at Y705. […] To evaluate the transcriptional activity, STAT3-binding region was cloned into Luc reporter. […] The firefly luciferase activity was evaluated and normalized by Renilla luciferase.
p-STAT3 activity: PLC5 cells treated with SC derivatives were collected in RIPA buffer and analyzed in p-STAT3 ELISA kit. The assay protocol follows the manufacturer.

HCC-bearing mice = assay: Antitumor effect of SC-43 in HCC-bearing mice; details: mouse, in vivo
Protocol: SHP-1/STAT3-related signaling pathway acts as a vital target for the anti-tumor effect of SC-43. See FIG. 22 (A) the cytotoxicity of SC-43 in HCC cells, (B) the antitumor effect of SC-43 in HCC-bearing mice, (C) the activity of SHP-1 induced by SC-43, and (D) Western blot analysis of p-STAT3 and STAT3 in HCC cells treated by SC-43 (10 μM and 20 μM).

PLC5 tumors = assay: Subcutaneous PLC5 xenograft; type: in vivo, mice; details: 10 mg/kg/day orally
Protocol: All experimental procedures using these mice were done in accordance with protocols approved by the Institutional Laboratory Animal Care and Use Committee of National Taiwan University. Each mouse was inoculated s.c. in the dorsal flank with 1×10^6 PLC5 cells suspended in 0.1 mL of serum-free medium containing 50% Matrigel (BD Biosciences). When tumors reached 100 to 200 mm3, mice received SC-40 tosylate (10 or 20 mg/kg) orally once daily. Tumors were measured weekly using calipers, and their volumes were calculated using the following standard formula: width×length×height×0.52.
(§2) We established an HCC orthotopic model using luc2-expressed PLC5 cells inoculated into liver of nude mice. […] To further correlate the molecular mechanism with the anticancer effect in vivo, p-STAT3 and SHP-1 activity in tumor extract from vehicle- and SC-treated mice was analyzed by immunoblotting. […] The pharmacokinetics of SC-43 was determined (FIG. 25E).

[6] = Pharmacokinetics of SC-43; type: in vivo; details: compared with literature report for sorafenib
Protocol: as §2

SHP-1 [7] = biological target: T1, SHP-1; assay: Phosphatase activity of recombinant SHP-1; type: biochemical; details: 25 ng protein, 30 minutes
Protocol: RediPlate 96 EnzChek Tyrosine Phosphatase Assay kit (R-22067) was used for SHP-1 activity assay (Molecular Probes). Recombinant SHP-1 protein (25 ng) was incubated with either SC-43 or SC-40 at the indicated dose for 30 minutes and then analyzed by SHP-1 phosphatase activity.

[8] = test system: PLC5/luc2 orthotopic tumors; assay: HCC orthotopic model with PLC5/luc2 cells; type: in vivo, mice; details: 10 mg/kg/day orally
Protocol: All experimental procedures using these mice were done in accordance with protocols approved by the Institutional Laboratory Animal Care and Use Committee of National Taiwan University. Each mouse was inoculated within liver […] with 1×10^4 PLC5/luc cells suspended in 0.1 mL of serum-free medium containing 50% Matrigel (BD Biosciences). […] Tumor growth was monitored by non-invasive in vivo imaging system (IVIS) image system twice weekly.
as §2

N#Cc1ccc(Oc2ccc(NC(=O)Nc3ccc(Cl)c(C(F)(F)F)c3)cc2)cc1 [Compound 1, 1-(4-Chloro-3-(trifluoromethyl)phenyl)-3-(4-(4-cyanophenoxyl)phenyl)urea]
apoptosis (sub-G1) (HCC cells [1]): showed a significant increase in sub-G1 phase population
transcription activity of STAT3 (Luc reporter) (STAT3): transcription activity of STAT3 was significantly decreased
viability of HCC cells / cytotoxicity (HCC cells [2]): decreased the viability of various HCC cells
tumor size relative to vehicle-treated mice at the end of treatment (Huh-7 tumors; Huh-7 xenograft, 10 mg/kg p.o. once daily): 25%
SHP-1 activity in Huh-7 tumors (Huh-7 tumors; tumor extract): induced significant rising of SHP-1 activity
p-STAT3 in Huh-7 tumors (Huh-7 tumors; tumor extract, Western blot): down regulated p-STAT3
growth of breast cancer and leukemia cell lines [3]: effective in inhibiting the growth of cancer cells
activity of SHP-1 in SHP-1 immunoprecipitates incubated with drug (SHP-1 [4]; PLC5 lysates, incubated 6 hours): increase the activity of SHP-1
p-STAT3 and STAT3-related proteins (Western blot) [5]: down-regulated p-STAT3 at Y705 residue and suppressed Mc1-1 and cyclin D1
IC50 (PLC5 cells): 7.5 µM
expression of p-VEGFR2 (Tyr1175) (p-VEGFR2 (Tyr1175)): did not have significant effect
Raf-1 activity versus vehicle control (Raf-1; PLC5 cells (FIG. 3)): showed the same Raf-1 activity as vehicle control
inhibition of Raf-1 activity (Raf-1; Raf-1 immunoprecipitated from PLC5 or Hep3B cell extracts, 10 μM, 24 h): did not inhibit the activity of Raf-1
kinase activity of JAK2 (JAK2): neither sorafenib nor SC-1 altered the kinase activity of JAK2
P-STAT3 state by ELISA (phospho-STAT3 (Tyr705); PLC5 cells, IL-6 stimulated, 10 uM, 24 h): showed a high degree of dephosphorylation of STAT3; also recorded: exhibited the same level of downregulation of P-STAT3 as sorafenib did
activity of p-STAT3 by STAT3 ELISA (phospho-STAT3 (Tyr705); Sk-Hep1 cells pre-treated with IL-6, 24 h): decreased the activity of p-STAT3 significantly

N#Cc1ccc(Oc2cccc(NC(=O)Nc3ccc(Cl)c(C(F)(F)F)c3)c2)cc1 [SC-43, 1-(3-(4-cyanophenoxyl)phenyl)-3-(4-chloro-3-(trifluoromethyl)phenyl)urea]
apoptosis (sub-G1) (HCC cells [1]): show significant anti-cancer effects in HCC cells
apoptosis in sorafenib-resistant cells (HCC cells [1]; sorafenib-resistant HCC cells (SR1)): resulted in significant apoptosis in sorafenib-resistant cells at submicromolar concentrations
viability of HCC cells / cytotoxicity (HCC cells [2]; 72 h): showed lower 50% inhibitory concentration, compared to sorafenib
IC50 (HCC cells [2]; read-out: IC50, cytotoxicity in HCC cells): ~500 nM
tumor growth inhibition in HCC-bearing mice (HCC-bearing mice): significantly causes tumor growth inhibition in HCC-bearing mice
p-STAT3 and SHP-1 activity in PLC5 tumor lysate (PLC5 tumors): Down-regulation of p-STAT3 and elevation of SHP-1 activity
average tumor size versus control mice at the end of treatment (PLC5 tumors; SC PLC5 tumor-bearing mice): less than half that of control mice
growth of breast cancer and leukemia cell lines [3]: effective in inhibiting the growth of cancer cells
stability in vivo (pharmacokinetics) [6]: exhibited a longer period of stability in vivo than that reported for sorafenib
phosphatase activity of SHP-1 in vitro (SHP-1 [4]; SHP-1-containing PLC5 extract, 10 or 100 nmol/L, 30 min, 4° C.): increase phosphatase activity of SHP-1 in vitro
p-STAT3 and STAT3-related proteins (Western blot) [5]: down-regulates phospho-STAT3-related signaling pathway in HCC; also recorded: shows better inhibition of p-STAT3-related signaling pathway than sorafenib; also recorded: revealed submicromolar inactivation of p-STAT3, relative to sorafenib
phosphatase activity of recombinant SHP-1 (SHP-1 [7]): increase phosphatase activity of SHP-1 in vitro
anti-HCC effect and survival in orthotopic model [8]: had an evident anti-HCC effect and significant survival benefit
p-STAT3 / STAT3 activity (phospho-STAT3 ELISA and luciferase reporter) (phospho-STAT3 (Tyr705); PLC5 cells): induce strong inhibition of p-STAT3 activity; also recorded: showed more potent inhibition of the p-STAT3-related signaling pathway
